Test [1] deals with LSD1 (Homo sapiens (Human), UniProt O60341). The experiment in a line: Biochemical analysis of LSD1 histone demethylase inhibition (BPS Bioscience LSD1 fluorescence analysis kit, HRP/Amplex Red). The following applies: demethylation of Lys4 of histone H3. How it is done: The biochemical inhibition activity of the synthesized compounds on LSD1 was measured. The activity measurement was performed using LSD1 fluorescence analysis kit (available from BPS Bioscience Co., Ltd., Catalog No: 50106). This analysis kit is designed to measure activity of LSD1 enzyme. H2O2 generated upon demethylation of Lys4 moiety of histone H3 by LSD1 is reacted with HRP/Amplex Red reagent to form fluorescent Resorufin, which is measured by this kit, thereby confirming demethylation.
The results are expressed as an IC50 value. As for a control, GSK2879552 (available from GlaxoSmithKline USA) was used.

In test [2] the test system is NCI-H1417 cells. The experiment in a line: Cell growth suppression test (CellTiter-Glo Luminescent Cell Viability Assay, 10 days treatment). Format: cell-based. The following applies: treated for 10 days. As to the method: Cell growth suppression effects of the synthesized compounds on NCI-H1417 cells were identified. The cells were treated with the synthesized compounds for 10 days. Then, in order to test the cell growth suppression, CellTiter-Glo Luminescent Cell Viability Assay (available from Promega, USA) was used. This test is to measure emission signals proportional to the number of ATPs based on a fixed amount of ATPs, which represents the presence of metabolically active cells, thereby determining the number of viable cells. The results are expressed as a Gl50 value. As for a control, GSK2879552 (available from GlaxoSmithKline USA) was used.
(In ATP-based viability assays light output follows the ATP content of the culture.)

For `N#Cc1ccc(-c2nc3c(N4CCC[C@@H](N)C4)ccnc3n2-c2ccc(N3CC[C@H](Cl)C3)cc2F)cc1F` [Example 36, 4-(7-((R)-3-aminopiperidine-1-yl)-3-(4-((S)-3-chloropyrrolidine-1-yl)-2-fluorophenyl)-3H-imidazo[4,5-b]pyridine-2-yl)-2-fluorobenzonitrile], inhibition in test [1] was half-maximal at 0.026 µM (IC50). Further, in test [2] (Homo sapiens, 240 h), the GI50 turned out to be 0.026 µM.

`N#Cc1ccc(-c2nc3c(N4CCC[C@@H](N)C4)ccnc3n2-c2ccc(C3CC3)cc2F)cc1F` [Example 11, (R)-4-(7-(3-aminopiperidine-1-yl)-3-(4-cyclopropyl-2-fluorophenyl)-3H-imidazo[4,5-b]pyridine-2-yl)-2-fluorobenzonitrile] gave an IC50 in test [1] of 0.021 µM. Further, the GI50 in test [2] (Homo sapiens, 240 h) was 0.024 µM.

The compound `CO[C@H]1CCN(c2ccc(-n3c(-c4ccc(C#N)c(F)c4)nc4c(N5CCC6(CCNC6)CC5)ccnc43)c(F)c2)C1` [Example 60, (S)-2-fluoro-4-(3-(2-fluoro-4-(3-methoxypyrrolidine-1-yl)phenyl)-7-(2,8-diazaspiro[4.5]decane-8-yl)-3H-imidazo[4,5-b]pyridine-2-yl)benzonitrile] displayed a 50% inhibitory concentration (IC50) in test [1] of 0.1 µM. This compound gave a GI50 in test [2] (Homo sapiens, 240 h) of 0.032 µM.

With `N#Cc1ccc(-c2nc3c(N4CCC[C@@H](N)C4)ccnc3n2-c2ccc(N3CC4COCC4C3)cc2F)cc1F` (stereo partly drawn) [Example 49, 4-(7-((R)-3-aminopiperidine-1-yl)-3-(2-fluoro-4-(tetrahydro-1H-furo[3,4-c]pyrrole-5(3H)-yl)phenyl)-3H-imidazo[4,5-b]pyridine-2-yl)-2-fluorobenzonitrile], in test [1], the IC50 worked out at 0.03 µM. The same compound displayed a GI50 in test [2] (Homo sapiens, 240 h) of 0.0053 µM.

Regarding `CO[C@H]1CCN(c2ccc(-n3c(-c4ccc(C#N)c(F)c4)nc4c(N5CCC[C@H](N)C5)ccnc43)c(F)c2)C1` [Example 62, 4-(7-((S)-3-aminopiperidine-1-yl)-3-(2-fluoro-4-((S)-3-methoxypyrrolidine-1-yl)phenyl)-3H-imidazo[4,5-b]pyridine-2-yl)-2-fluorobenzonitrile], the IC50 in test [1] is 0.036 µM. Besides, the concentration for 50% growth inhibition (GI50) in test [2] (Homo sapiens, 240 h) worked out at 0.02 µM.

`CO[C@H]1CCN(c2ccc(-n3c(-c4ccc(C#N)c(F)c4)nc4c(N5CCC[C@@H](N)C5)ccnc43)c(F)c2)C1` [Example 25, 4-(7-((R)-3-aminopiperidine-1-yl)-3-(2-fluoro-4-((S)-3-methoxypyrrolidine-1-yl)phenyl)-3H-imidazo[4,5-b]pyridine-2-yl)-2-fluorobenzonitrile] returned an IC50 in test [1] of 0.038 µM. This compound came in with a GI50 in test [2] (Homo sapiens, 240 h) of 0.0044 µM.

On to `N#Cc1ccc(-c2nc3c(N4CCC[C@@H](N)C4)ccnc3n2-c2ccc(N3CCCC3)cc2)cc1F` [Example 13, (R)-4-(7-(3-aminopiperidine-1-yl)-3-(4-(pyrrolidine-1-yl)phenyl)-3H-imidazo[4,5-b]pyridine-2-yl)-2-fluorobenzonitrile], for which, in test [1], inhibition was half-maximal at 0.023 µM (IC50). The compound also registered a concentration for 50% growth inhibition (GI50) in test [2] (Homo sapiens, 240 h) of 0.062 µM.

In turn, “4-(7-((R)-3-aminopiperidine-1-yl)-3-(2-fluoro-4-((S)-3-hydroxypyrrolidine-1-yl)phenyl)-3H-imidazo[4,5-b]pyridine-2-yl)-2-fluorobenzonitrile [Example 35]” gave a concentration for half-maximal inhibition (IC50) in test [1] of 0.045 µM. This compound also gave a GI50 in test [2] of 0.017 µM.

As for `CO[C@H]1CCN(c2ccc(-n3c(-c4ccc(C#N)c(F)c4)nc4c(N5CCC6CCNC6C5)ccnc43)c(F)c2)C1` (stereo partly drawn) [Example 61, 2-fluoro-4-(3-(2-fluoro-4-((S)-3-methoxypyrrolidine-1-yl)phenyl)-7-(octahydro-6H-pyrrolo[2,3-c]pyridine-6-yl)-3H-imidazo[4,5-b]pyridine-2-yl)benzonitrile], half-maximal inhibition in test [1] (IC50) was put at 0.038 µM. The GI50 in test [2] (Homo sapiens, 240 h) was found to be 0.011 µM.

`CC(=O)O[C@H]1CCN(c2ccc(-n3c(-c4ccc(C#N)c(F)c4)nc4c(N5CCC[C@@H](N)C5)ccnc43)c(F)c2)C1` [Example 32, (S)-1-(4-(7-((R)-3-aminopiperidine-1-yl)-2-(4-cyano-3-fluorophenyl)-3H-imidazo[4,5-b]pyridine-3-yl)-3-fluorophenyl)pyrrolidine-3-yl acetate] returned a half-inhibitory concentration (IC50) in test [1] of 0.038 µM. In test [2] (Homo sapiens, 240 h), this compound gave a GI50 of 0.046 µM.

On to `CN[C@@H]1CCCN(c2ccnc3c2nc(-c2ccc(C#N)cc2)n3-c2ccc(C3CC3)cc2)C1` [Example 4, (R)-4-(3-(4-cyclopropylphenyl)-7-(3-(methylamino)piperidine-1-yl)-3H-imidazo[4,5-b]pyridine-2-yl)benzonitrile], for which the 50% inhibitory concentration (IC50) in test [1] amounted to 0.044 µM. In addition, growth in test [2] (Homo sapiens, 240 h) was halved (GI50) at 0.103 µM.

With `CO[C@H]1CCN(c2ccc(-n3c(-c4ccc(C#N)c(F)c4)nc4c(N5CCC(N)C5)ccnc43)c(F)c2)C1` (stereo partly drawn) [Example 64, 4-(7-(3-aminopyrrolidine-1-yl)-3-(2-fluoro-4-((S)-3-methoxypyrrolidine-1-yl)phenyl)-3H-imidazo[4,5-b]pyridine-2-yl)-2-fluorobenzonitrile], the half-inhibitory concentration (IC50) in test [1] worked out at 0.024 µM. Moreover, in test [2] (Homo sapiens, 240 h), the GI50 came to 0.014 µM.

On to `Cc1ccc(-n2c(-c3ccc(C#N)c(F)c3)nc3c(N4CCC[C@@H](N)C4)ccnc32)cc1` [Example 28, (R)-4-(7-(3-aminopiperidine-1-yl)-3-(p-tolyl)-3H-imidazo[4,5-b]pyridine-2-yl)-2-fluorobenzonitrile], for which, in test [1], the IC50 is 0.04 µM. In test [2] (Homo sapiens, 240 h), the GI50 worked out at 0.037 µM.

The compound `N#Cc1ccc(-c2nc3c(N4CCC[C@@H](N)C4)ccnc3n2-c2ccc(C3CC3)cc2)cc1` [Example 5, (R)-4-(7-(3-aminopiperidine-1-yl)-3-(4-cyclopropylphenyl)-3H-imidazo[4,5-b]pyridine-2-yl)benzonitrile] had a concentration for half-maximal inhibition (IC50) in test [1] of 0.101 µM. The compound also returned a GI50 in test [2] (Homo sapiens, 240 h) of 0.159 µM.

One may read the IC50 as the point on the concentration scale where inhibition reaches its midpoint. Low readings indicate inhibition by little substance, high ones a need for much substance. As a reminder, the GI50 is the concentration that inhibits growth by half.

The values are drawn from patent publication US12479845B2, “Imidazopyridine derivative compounds and use of same” (HANMI PHARM. CO., LTD., priority 2019, dated 2025).
